This assay concerns the target BTK (Homo sapiens, UniProt Q06187). As to the kind of experiment: Mechanism validation: pretreatment with ibrutinib, thalidomide-OH or bortezomib before PROTAC in Mino cells. Format: cell-based. The arrangement: endogenous in cells; host or cells: Mino (ATCC CRL-3000), Ramos (ATCC CRL-1596), K562 (NCI-60). The following applies: 2 h pretreatment, then PROTAC 24 h.

Data on 1 molecule can be found in paper PMC7349657, “Efficient Targeted Degradation via Reversible and Irreversible Covalent PROTACs” (Journal of the American Chemical Society, 2020).

The structures appear in SMILES notation.

Chain of BTK (Q06187 whole entry): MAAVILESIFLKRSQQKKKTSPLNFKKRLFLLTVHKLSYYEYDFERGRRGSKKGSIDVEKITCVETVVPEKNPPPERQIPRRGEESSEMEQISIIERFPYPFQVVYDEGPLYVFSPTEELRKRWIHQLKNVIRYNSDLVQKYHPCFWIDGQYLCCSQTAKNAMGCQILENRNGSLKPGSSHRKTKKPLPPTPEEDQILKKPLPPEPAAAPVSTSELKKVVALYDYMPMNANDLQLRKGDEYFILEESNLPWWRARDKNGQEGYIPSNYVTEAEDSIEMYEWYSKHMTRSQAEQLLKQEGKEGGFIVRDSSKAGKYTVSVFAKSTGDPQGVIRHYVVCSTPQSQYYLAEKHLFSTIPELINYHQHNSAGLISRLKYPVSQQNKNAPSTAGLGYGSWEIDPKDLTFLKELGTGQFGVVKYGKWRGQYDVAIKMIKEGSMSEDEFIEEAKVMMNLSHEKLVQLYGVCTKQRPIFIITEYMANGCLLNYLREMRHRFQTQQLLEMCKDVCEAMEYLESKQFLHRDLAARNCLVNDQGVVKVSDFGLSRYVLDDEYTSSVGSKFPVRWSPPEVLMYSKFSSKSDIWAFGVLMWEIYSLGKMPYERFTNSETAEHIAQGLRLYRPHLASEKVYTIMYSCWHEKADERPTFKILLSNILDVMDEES

`Nc1ncnc2c1c(-c1ccc(Oc3ccccc3)cc1)nn2C1CCCN(C(=O)CCCCCCOCCOCCOCCOCCOc2cccc3c2C(=O)N(C2CCC(=O)NC2=O)C3=O)C1` (stereo not shown) [NC-1]: the “BTK degradation after thalidomide-OH pretreatment” value is “only slightly hindered by thalidomide”.
